Legend:
microbial growth = assay: single microbiological assay of the antimicrobial activity of the synthesized DMH/Ag complex; type: cell-based
[1] = cited from earlier work
[2] = levels of dissolved silver with halogenated hydantoins and a source of silver; type: physicochemical
From the text: Hydantoin structures are also known as complexing agents in silver-plating processes (R. J. Morrissey, U.S. Patent Application Publication no. 2005/0183961). […] While not fully understood it is believed that the aforementioned increased in solubility is due to a soluble complex or association between silver and hydantoin ring structures since it has been found the silver remains soluble to a higher degree than expected thus making more silver ions available for killing harmful microorganism.
DMH is a chemical derivative of hydantoin comprising of a hydantoin ring with two methyl groups attached at the number five position of the ring. DMH is a component of Bromochlordimethyl hydantoin (BCDMH), organic source bromine utilized for disinfecting spa water. […] Additional research performed by the Applicant seems to indicate that the DMH portion of the BCDMH molecule alone may be responsible for the increased solubility of silver. The mechanism of increased silver solubility appears to involve the formation of a DMH/silver complex that has a higher solubility in water than silver salts such as […] or silver chloride. It is should be noted that the antimicrobial activity tends to increase with soluble silver concentration.

bacteria in the pool = assay: 32,000 gallon outdoor pool sanitized with FROG minerals, chlorine and DMH; bacteria monitored over three months; settings: about 10 ppm to 12 ppm DMH added to pool treated with FROG minerals (silver chloride on limestone carrier) and chlorine; free chlorine as low as 0.1 ppm; three month period
Experimental: A 32,000 gallon outdoor pool was sanitized using commercially available FROG™ minerals and chlorine. The FROG™ Minerals included silver chloride on a limestone carrier. In addition to the conventional sanitizing treatment using silver chloride and chlorine sufficient DMH was added to the pool to bring the DMH content of the pool to a level of about 10 ppm to 12 ppm DMH in the pool. The free chlorine, total chlorine, pH and the bacteria in the pool were monitored over a three month period. During the period both humans and animals swam in the pool.

[3] = used in conjunction with a source of silver

Silver dimethylhydantoin [synthesized DMH/Ag complex]
antimicrobial activity compared to the equivalent level of silver used alone (microbial growth; synthesized complex): greater antimicrobial activity | control of microbial growth (microbial growth; without added source of halide): has the potential to control microbial growth without the need for an added source of halide

O=C1CNC(=O)N1 [Hydantoin]
solubility in water [1]: slightly soluble in water

CC1(C)C(=O)N(Cl)C(=O)N1Br [BCDMH, 1-bromo-3-chloro-5,5dimethylhydantoin]
levels of dissolved silver ([2]; combined with silver ions in spa water containing bromine): higher than would be anticipated | levels of dissolved silver [2, 3]: tend to increase levels of dissolved silver

CC1(C)C(=O)N(Cl)C(=O)N1Cl [DCDMH, 1,3 dichloro-5,5 dimethylhydantoin]
levels of dissolved silver [2, 3]: tend to increase levels of dissolved silver

CC1(C)NC(=O)NC1=O [DMH, 5,5-dimethylhydantoin]
total bacteria count (bacteria in the pool): zero

From patent US9187351B2, “Water treatment” (KING TECHNOLOGY INC., priority 2004, dated 2015)
